US20180125834A1, “METHODS OF TREATING BACTERIAL INFECTIONS AND FUNGAL INFECTIONS USING ENANTIOPURE DEUTERIUM-ENRICHED PIOGLITAZONE” (DeuteRx, LLC, priority 2015, published 2018)

Assays:
C2C12 cells = conditions: 30 μM for 15, 30, or 90 min; 10 mM sodium pyruvate
Protocol: On the day before the assay, C2C12 cells were subcultured in XF96 microplates at a density of 20,000 cells per well. After overnight incubation (37° C., 5% CO2), the cells were washed 3 times with assay medium (Seahorse medium (Seahorse Bioscience, North Billerica, Mass.) containing 10 mM sodium pyruvate, pH 7.4). […] Incubation times of 15, 30, or 90 min were used prior to measurement of maximal respiration, i.e., until addition of FCCP. […] Maximal respiration as oxygen consumption rates (pmoles O2/min) was measured for each compound, at each concentration, and each time point in three separate experiments.

[1] = In vitro stability (enantiomerization, D/H exchange) in human plasma at 37° C.; type: in vitro ADME; conditions: up to 32 h
Protocol: (§1) The plasma samples were incubated at 37° C. in duplicate (anticoagulant: K3EDTA). […] Samples were placed at −80° C. until the study was complete. […] The vortexed samples were centrifuged and 50 μL of supernatant was dispensed in a 96-well plate.
(§2) The deuterium in both enantiomers, d-S and d-R, can be lost by D/H exchange to give both protonated enantiomers, h-S and h-R with rate constants kDRR, kDRS, kDSR, and kDSS. At the same time, the protonated enantiomers h-S and h-R can exchange with enantiomerization rate constants kRS and kSR. All four compounds can also degrade with potentially different degradation rate constants kdSd, kdRd, khSd, and khRd.
(§3) Human and mouse plasma data were analyzed independently. […] Data in each species was analyzed using a stepwise approach.
(§4) The step between calculated time points was minimized in order to minimize the local error (proportional to the square of the step size) and the global error (proportional to the step size).

[2] = In vitro plasma stability, half-life of deuterated vs. protonated enantiomers (plasma species not given); type: in vitro ADME; conditions: 37° C., t1/2=ln(2)/k from fitted rate constants
Protocol: as §1, §2, §3, §4

[3] = In vitro stability (enantiomerization, D/H exchange) in C57BL/6 mouse plasma at 37° C.; type: in vitro ADME; conditions: up to 32 h
Protocol: as §1, §2, §3, §4

[4] = biological target: T1, human recombinant monoamine oxidase B (Homo sapiens, UniProt P27338); test: Monoamine oxidase B (MAO-B) inhibition, luminescence assay; type: biochemical
T1 sequence (P27338 1-520): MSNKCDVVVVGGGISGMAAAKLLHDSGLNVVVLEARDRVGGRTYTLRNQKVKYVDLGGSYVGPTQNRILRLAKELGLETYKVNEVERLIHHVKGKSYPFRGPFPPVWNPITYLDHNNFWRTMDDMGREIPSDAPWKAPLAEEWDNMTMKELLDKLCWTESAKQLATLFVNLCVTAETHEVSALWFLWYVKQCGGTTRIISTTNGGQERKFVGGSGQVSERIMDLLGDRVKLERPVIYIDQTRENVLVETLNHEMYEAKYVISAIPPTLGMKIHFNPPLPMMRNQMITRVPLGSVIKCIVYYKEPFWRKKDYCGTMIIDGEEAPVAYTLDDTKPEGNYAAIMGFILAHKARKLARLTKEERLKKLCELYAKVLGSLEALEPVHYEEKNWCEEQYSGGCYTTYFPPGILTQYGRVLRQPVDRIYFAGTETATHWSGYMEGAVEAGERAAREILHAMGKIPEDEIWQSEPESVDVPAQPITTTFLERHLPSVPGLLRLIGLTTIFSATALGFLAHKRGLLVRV
Protocol: The mixtures were incubated at 22° C. for 5 min. Substrate (D-luciferin derivative) was added, and then the mixture was incubated at 37° C. for 60 min. The reaction was stopped by addition of the detection reagent containing luciferase. Luminescence was read after standing for 60 min at room temperature.
Results were expressed as a percentage of the luminescence of the control (enzyme+substrate). IC50 values were obtained by fitting experimental data (mean % luminescence as function of concentration) to the Hill equation with variable slope using non-linear regression analysis.

Row | SMILES | maximal respiration as oxygen consumption rate (OCR) vs. vehicle-treated cells (C2C12 cells) | degradation (sum of peak areas vs. incubation time) [1] | half-life of deuterated enantiomer vs. corresponding protonated enantiomer [2] | degradation (sum of peak areas vs. incubation time) [3] | difference in inhibition efficacy between d-R-pio and d-S-pio [4]
1 | [2H][C@@]1(Cc2ccc(OCCc3ccc(CC)cn3)cc2)SC(=O)NC1=O [d-S-pio, (S)-5-({p-[2-(5-Ethyl-2-pyridyl)ethoxy]phenyl}methyl)-(5-^2H)-1,3-thiazolidine-2,4-dione] | no significant measurable effect | negligible | approximately the same as the half-life for h-S-pio | negligible | –
2 | CCc1ccc(CCOc2ccc(C[C@@H]3SC(=O)NC3=O)cc2)nc1 [h-S-pio, (S)-5-({p-[2-(5-ethyl-2-pyridyl)ethoxy]phenyl}methyl)-1,3-thiazolidine-2,4-dione, reference compound] | – | negligible | – | negligible | –
3 | CCc1ccc(CCOc2ccc(CC3SC(=O)NC3=O)cc2)nc1 (racemic) [h-rac-pio, rac-5-({p-[2-(5-Ethyl-2-pyridyl)ethoxy]phenyl}methyl)-1,3-thiazolidine-2,4-dione, reference compound] | inhibited maximal respiration | – | – | – | –
4 | [2H][C@]1(Cc2ccc(OCCc3ccc(CC)cn3)cc2)SC(=O)NC1=O [d-R-pio, (R)-5-({p-[2-(5-Ethyl-2-pyridyl)ethoxy]phenyl}methyl)-(5-^2H)-1,3-thiazolidine-2,4-dione] | inhibited maximal respiration | negligible | approximately two-fold | negligible | greater than 5 fold
5 | CCc1ccc(CCOc2ccc(C[C@H]3SC(=O)NC3=O)cc2)nc1 [h-R-pio, (R)-5-({p-[2-(5-ethyl-2-pyridyl)ethoxy]phenyl}methyl)-1,3-thiazolidine-2,4-dione, reference compound] | – | negligible | – | negligible | –
